Laboratory results reported in patent US7985594B2, “Biradical polarizing agents for dynamic nuclear polarization” (Massachusetts Institute of Technology, priority 2006, dated 2011).

Columns and labels:
[1] = DNP enhanced 13C-CPMAS NMR experiments (1H polarization enhancement by microwave irradiation); conditions: 5 mM TOTAPOL, 2 M 13C-urea in d6-DMSO/D2O/H2O, 90 K, 5 T
Description: Solutions for the DNP/NMR experiments—2 M ^13C-urea or 0.15 M U—^13C—^15N-proline—were prepared in d6-DMSO/D2O/H2O (60:34:6 w/w) or d8-glycerol/D2O/H2O (60:32:8 w/w), and doped with 5 mM TOTAPOL (10 mM electron spins). The reduced ^1H concentration was required to optimize the signal enhancements. DNP experiments using TOTAPOL as a polarizing agent were performed on a custom designed DNP/NMR spectrometer and triple-resonance (e^−, ^1H and ^13C/^15N) cryogenic (90 K) MAS probe^31 operating at 5 T (140 GHz EPR and 211 MHz ^1H NMR). The enhanced ^1H polarization developed by the microwave irradiation was detected indirectly via observation of the cross-polarized (CP) ^13C signals. The 140 GHz microwaves were generated by a gyrotron, a vacuum electron device capable of producing high power (>10 W) millimeter waves^26. In certain embodiments, sapphire, rather than zirconia, rotors are preferred for the DNP experiments since they transmit microwaves with ˜30% less attenuation. […]
The ^1H polarization is initially saturated by a series of 90° pulses followed by a delay of 3 T2. […] Note that the error for the enhancement factor is determined primarily by the uncertainty in measuring the intensity of the un-enhanced NMR signal.

[2] = Solubility in aqueous media; assay type: physicochemical
Description: (§1) In contrast, BT2E is insoluble in all of these media.

[3] = Stability in glycerol/water; assay type: physicochemical; conditions: glycerol/water (6:4 w/w) at −10 °C for months
Description: as §1

In the case of “1-(2,2,6,6-tetramethyl-1-oxy-4-piperidinyl)oxy-3-(2,2,6,6-tetramethyl-1-oxy-4-piperidinyl)amino-propan-2-ol [TOTAPOL]”, the “time constant for growth of the enhanced signal (microwaves on)” value [1] was roughly 5.5 s, the “solubility in 200 mM salt” value ([2]; 200 mM salt, solvent conditions common for protein samples) was “soluble in 200 mM salt” and the solubility in water ([2]; water) was “soluble in water”. The stability in glycerol/water [3] was “stable”.
